Source: US20250057969A1, “CONJUGATES COMPRISING CLEAVABLE LINKERS” (priority 2023, published 2025)
Numbered stars: 1 amine (or outer) side, 2 acyl side, 3 side chain; on linkers, the order of the positions; unused ones are H or OH. Square brackets hold non-standard residues; d marks the D form. Peptide text beside a SMILES is read from it. * marks the point of attachment. X1 = O=C(O)[C@H]1O[C@@H](Oc2ccc(COC(=O)[*:2])cc2N[*:1])[C@H](O)[C@@H](O)[C@@H]1O; CH3O(CH2CH2O)11CH2CH2CO = COCCOCCOCCOCCOCCOCCOCCOCCOCCOCCOCCOCCC(=O)*; Dolaproine = CO[C@@H]([C@@H]1CCCN1)[C@@H](C)C(=O)O; Hexanoyl(6-maleimido) = O=C1C=CC(=O)N1CCCCCC(=O)*; Propanoyl(3-maleimido) = O=C1C=CC(=O)N1CCC(=O)*; Dil = CC[C@H](C)[C@H](NC)[C@@H](CC(=O)O)OC; PABC = O=C(OCc1ccc(N[*:1])cc1)[*:2]; X2 = C[C@@H](N*)[C@@H](O)c1ccccc1; Cit = NC(=O)NCCC[C@H](N)C(=O)O; NMeV = CN[C@H](C(=O)O)C(C)C; βAla = NCCC(=O)O

Assays:
Type in all cases: biochemical
[1] = target: T1, Human neutrophil elastase (Homo sapiens, UniProt P08246); assay: Linker-Payload enzymatic cleavage with human neutrophil elastase; conditions: 0.67 μM enzyme, 67 μM Linker-Payload, pH 7.4, 37° C., 24 hours
T1 sequence (P08246 30-267): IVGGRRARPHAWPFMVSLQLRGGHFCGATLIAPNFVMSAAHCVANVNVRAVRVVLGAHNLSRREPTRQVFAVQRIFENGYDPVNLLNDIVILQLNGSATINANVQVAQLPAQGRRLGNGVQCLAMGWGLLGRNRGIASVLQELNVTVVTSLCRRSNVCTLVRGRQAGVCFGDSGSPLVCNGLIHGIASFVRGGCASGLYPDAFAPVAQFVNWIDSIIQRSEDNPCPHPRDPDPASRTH
Protocol: 0.67 μM Human neutrophil elastase was added to 67 μM Linker-Payload (1:100) in Tris Buffered Saline, pH 7.4. The mixture was incubated at 37° C. for a duration of 24 hours with intermediate timepoints collected and diluted 1:1 with buffer containing acetonitrile, water and formic acid. The sample was measured by reverse-phase HPLC with data quantified against a standard curve.

[2] = target: Cathepsin B (Homo sapiens, UniProt P07858); assay: Linker-Payload enzymatic cleavage with Cathepsin B; conditions: 0.14 μM enzyme, 70 μM Linker-Payload, pH 5.0, 37° C., 24 hours
Protocol: 0.14 μM Cathepsin B was added to 70 μM Linker-Payload (1:500) in 50 mM sodium acetate, 1 mM DTT, pH 5.0. The mixture was incubated at 37° C. for a duration of 24 hours with intermediate timepoints collected and diluted 1:1 with buffer containing acetonitrile, water and formic acid. The sample was measured by reverse-phase HPLC with data quantified against a standard curve.

[3] = target: T2, β-glucuronidase (Homo sapiens, UniProt P08236); assay: Linker-Payload enzymatic cleavage with β-glucuronidase; conditions: 4 nM enzyme, 40 μM Linker-Payload, pH 5.0, 37° C., 24 hours
T2 sequence (P08236 23-651): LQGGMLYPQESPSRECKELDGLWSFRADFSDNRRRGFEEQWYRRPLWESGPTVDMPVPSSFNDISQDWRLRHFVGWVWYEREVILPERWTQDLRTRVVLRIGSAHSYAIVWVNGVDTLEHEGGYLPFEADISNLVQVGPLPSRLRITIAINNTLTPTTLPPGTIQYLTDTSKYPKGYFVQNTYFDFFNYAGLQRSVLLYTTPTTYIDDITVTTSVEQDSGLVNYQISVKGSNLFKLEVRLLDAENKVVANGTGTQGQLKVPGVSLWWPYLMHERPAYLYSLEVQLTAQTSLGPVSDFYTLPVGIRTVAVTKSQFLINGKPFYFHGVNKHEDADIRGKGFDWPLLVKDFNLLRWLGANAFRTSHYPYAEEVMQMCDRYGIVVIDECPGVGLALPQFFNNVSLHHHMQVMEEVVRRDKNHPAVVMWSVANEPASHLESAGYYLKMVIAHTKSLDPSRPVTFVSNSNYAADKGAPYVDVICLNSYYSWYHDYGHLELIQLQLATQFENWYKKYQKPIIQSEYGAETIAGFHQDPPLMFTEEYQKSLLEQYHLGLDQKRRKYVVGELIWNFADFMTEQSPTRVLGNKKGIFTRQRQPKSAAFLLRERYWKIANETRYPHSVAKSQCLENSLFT
Protocol: 4 nM β-glucuronidase was added to 40 μM Linker-Payload (1:10,000) in 50 mM sodium acetate, pH 5.0. The mixture was incubated at 37° C. for a duration of 24 hours with intermediate timepoints collected and diluted 1:1 with buffer containing acetonitrile, water and formic acid. The sample was measured by reverse-phase HPLC with data quantified against a standard curve.

SMILES | cleavage in the presence of human neutrophil elastase (FIG. 1D) [1] | cleavage in the presence of human neutrophil elastase (FIG. 1C) [1] | cleavage in the presence of cathepsin B (FIG. 1B) [2] | cleavage in the presence of β-glucuronidase (FIG. 1A) [3] | cleavage rate in the presence of β-glucuronidase relative to LP7 and LP8 (FIG. 1E) [3]
CC[C@H](C)[C@@H]([C@@H](CC(=O)N1CCC[C@H]1[C@H](OC)[C@@H](C)C(=O)N[C@H](C)[C@@H](O)c1ccccc1)OC)N(C)C(=O)[C@@H](NC(=O)[C@H](C(C)C)N(C)C(=O)OCc1ccc(O[C@@H]2O[C@H](C(=O)O)[C@@H](O)[C@H](O)[C@H]2O)c(CNC(=O)CCNC(=O)[C@H](CCCCNC(=O)CCOCCOCCOCCOCCOCCOCCOCCOCCOCCOCCOCCOC)NC(=O)CCN2C(=O)C=CC2=O)c1)C(C)C [LP7, reference compound] | did not undergo rapid cleavage | – | – | – | –
CC[C@H](C)[C@@H]([C@@H](CC(=O)N1CCC[C@H]1[C@H](OC)[C@@H](C)C(=O)N[C@H](C)[C@@H](O)c1ccccc1)OC)N(C)C(=O)[C@@H](NC(=O)[C@H](C(C)C)N(C)C(=O)OCc1ccc(NC(=O)[C@H](CCCNC(N)=O)NC(=O)[C@@H](NC(=O)CCCCCN2C(=O)C=CC2=O)C(C)C)cc1)C(C)C [LP1, maleimidocaproyl-valine-citrulline-p-amrninobenzoyloxycajrbonyl-MMAE, reference compound] ({Hexanoyl(6-maleimido)}-V[Cit][PABC][NMeV]V[Dil][Dolaproine]-X2) | – | underwent more rapid cleavage | – | – | –
CC[C@H](C)[C@@H]([C@@H](CC(=O)N1CCC[C@H]1[C@H](OC)[C@@H](C)C(=O)N[C@H](C)[C@@H](O)c1ccccc1)OC)N(C)C(=O)[C@@H](NC(=O)[C@H](C(C)C)N(C)C(=O)OCc1ccc(O[C@@H]2O[C@H](C(=O)O)[C@@H](O)[C@H](O)[C@H]2O)c(CNC(=O)COC2(CNC(=O)CCN3C(=O)C=CC3=O)CN(C(=O)CCOCCOCCOCCOCCOCCOCCOCCOCCOCCOCCOCCOC)C2)c1)C(C)C [LP3] | – | did not undergo rapid cleavage | neither LP2 nor LP3 underwent rapid cleavage | underwent significant cleavage | –
CC[C@H](C)[C@@H]([C@@H](CC(=O)N1CCC[C@H]1[C@H](OC)[C@@H](C)C(=O)N[C@H](C)[C@@H](O)c1ccccc1)OC)N(C)C(=O)[C@@H](NC(=O)[C@H](C(C)C)N(C)C(=O)OCc1ccc(O[C@@H]2O[C@H](C(=O)O)[C@@H](O)[C@H](O)[C@H]2O)c(NC(=O)CCNC(=O)[C@H](CCCCNC(=O)CCOCCOCCOCCOCCOCCOCCOCCOCCOCCOCCOCCOC)NC(=O)CCN2C(=O)C=CC2=O)c1)C(C)C [LP8, reference compound] ({Propanoyl(3-maleimido)}-K(CH3O(CH2CH2O)11CH2CH2CO)[βAla][X1][NMeV]V[Dil][Dolaproine]-X2) | did not undergo rapid cleavage | – | – | – | –
CC[C@H](C)[C@@H]([C@@H](CC(=O)N1CCC[C@H]1[C@H](OC)[C@@H](C)C(=O)N[C@H](C)[C@@H](O)c1ccccc1)OC)N(C)C(=O)[C@@H](NC(=O)[C@H](C(C)C)N(C)C(=O)OCc1ccc(O[C@@H]2O[C@H](C(=O)O)[C@@H](O)[C@H](O)[C@H]2O)c(CNC(=O)CCNC(=O)COC2(CNC(=O)CCN3C(=O)C=CC3=O)CN(C(=O)CCOCCOCCOCCOCCOCCOCCOCCOCCOCCOCCOCCOC)C2)c1)C(C)C [LP2] | did not undergo rapid cleavage | did not undergo rapid cleavage | neither LP2 nor LP3 underwent rapid cleavage | underwent significant cleavage | underwent slower cleavage than both LP7 (Reference) and LP8 (Reference)
